# Assay results as given in PubChem BioAssay AID1996.
# Conditions: buffer; pH 7.4; 200.0 µM
row,Compound,solubility kinetic
1,Cc1ccc(C(=O)c2nccn2C)cc1C,> 32.1 µg/mL
2,C=CCN1CCN(C(=O)CSc2ccccc2)CC1,> 41.5 µg/mL
3,COP(=O)(OC)/C(C=O)=N/Nc1ccc([N+](=O)[O-])cc1,> 45.2 µg/mL
4,CC(C)(C)c1ccc(O)c(N=Cc2c(O)ccc3ccccc23)c1,< 0.7 µg/mL
5,Cc1cccc(C(=O)NCC(=O)OCc2nc(N)nc(Nc3ccccc3C)n2)c1,53.8 µg/mL
6,O=C(N/N=C/c1c[nH]c2ccccc12)c1ccccc1O,> 41.9 µg/mL
7,Cc1cccc(N2CC(C(=O)Nc3nccs3)CC2=O)c1C (centres undefined),42 µg/mL
8,CC1CN(C(=O)COC(=O)c2c(Cl)cccc2Cl)CC(C)O1 (centres undefined),49.5 µg/mL
9,O=C1CC(=O)N(Cc2ccccc2)C(=S)N1,> 35.1 µg/mL
10,CCCN(CCC)C(=O)CC(c1ccccc1)c1ccco1 (centres undefined),> 44.9 µg/mL
11,O=C(N/N=C/c1cccnc1)c1ccccc1Cl,> 39 µg/mL
12,CC(CC(=O)NCCc1ccc(F)cc1)c1ccccc1 (centres undefined),39.3 µg/mL
13,CCCCN(C)C1CCN(C(=S)Nc2cccc(OC)c2)CC1,> 50.3 µg/mL
14,CCOc1ncccc1C(=O)Nc1cc(S(=O)(=O)N2CCOCC2)ccc1OCC(F)(F)F,0.5 µg/mL
15,COc1ccc(N(C)S(=O)(=O)c2c(C)noc2C)c(OC)c1,> 49 µg/mL
16,COc1ccccc1/C=C/C(=O)OCC(=O)c1cc(C)n(C)c1C,7.9 µg/mL
17,Cc1ccccc1C1NC(=S)NC2=C1C(=O)CC(C)(C)C2 (centres undefined),39.3 µg/mL
18,COc1ccc(NC(=O)c2cc(C)n(Cc3cccs3)c2C)cc1,1.3 µg/mL
19,C#CCn1c(C)cc(C)c(S(=O)(=O)c2ccccc2)c1=O,> 45.2 µg/mL
20,Cc1ccc(OC(C)C(=O)Nc2ccc(F)cc2)c([N+](=O)[O-])n1 (centres undefined),39.7 µg/mL
21,COc1ccc(C2CN(C)CC2C(=O)c2ccc(C)cc2)cc1Cl (centres undefined),40.1 µg/mL
22,CC(=O)c1ccc(NC(=O)C(C)OC(=O)/C=C/c2ccco2)cc1 (centres undefined),21.7 µg/mL
23,O=C(NCC1CCCO1)c1ccc(N2C(=O)C3CCCCC3C2=O)cc1 (centres undefined),44.9 µg/mL
24,CN(C(=O)CSc1cccc[n+]1[O-])c1ccccc1,35.5 µg/mL

row,Compound,solubility kinetic
1,Cn1c(=O)n(Cc2ccccc2Br)c2ccccc21,7.8 µg/mL
2,O=C(COC(=O)c1ccccc1Br)Nc1cccnc1Cl,18.2 µg/mL
3,O=C(Oc1cc(Cl)cc(Cl)c1)c1cnc2n(c1=O)CCS2,43.9 µg/mL
4,CCOC(=O)c1ccc(NC(=S)Nc2cccc(N)n2)cc1,2.3 µg/mL
5,S=c1nc(NCCc2ccccc2Cl)c2ccccc2[nH]1,0.2 µg/mL
6,O=C(NC1CCCc2ccccc21)c1ccc([N+](=O)[O-])cc1 (centres undefined),3.2 µg/mL
7,Cl.OCCNCCNCc1ccc(-c2ccccc2)cc1,> 51.5 µg/mL
8,O=C(c1ccc(-c2cccc(Cl)c2Cl)o1)N1CCOCC1,47.1 µg/mL
9,COc1cccc(-c2cc(C(=O)NC3CCCCC3)no2)c1,< 0.3 µg/mL
10,O=C(O)C1CCN(S(=O)(=O)c2cccs2)CC1,> 41.3 µg/mL
11,CC1CCN(Cc2cc(=O)oc3ccc4ccccc4c23)CC1,2.3 µg/mL
12,O=[N+]([O-])c1ccc(Cl)c(S(=O)(=O)Nc2cccc(S(=O)(=O)NC3=NCCC3)c2)c1,> 68.8 µg/mL
13,Cc1ccc(CN2CCCC(CO)(Cc3ccccc3C)C2)s1 (centres undefined),48.6 µg/mL
14,CCOc1ccccc1NC(=O)c1ccc(CN2CCc3ccccc3C2)cc1,2.3 µg/mL
15,COc1ccc(C(C)(C)C)cc1NC(=O)CCN1C(=O)NC(C)(C)C1=O,52.7 µg/mL
16,COc1ccccc1NC(=O)c1cc([N+](=O)[O-])ccc1N1CCOCC1,31.2 µg/mL
17,Cc1cn(CCC(=O)Nc2ccccc2N2CCOCC2)c2ccccc12,27.5 µg/mL
18,COc1cccc(C(=O)OCC(=O)NC(=O)NC2CCCC2)c1O,38.5 µg/mL
19,COc1ccc(CNc2nc(NC(C)=O)nn2-c2ccccc2)cc1,> 50.6 µg/mL
20,CC(O)CNCCOc1cccc(Oc2ccccc2)c1.O=C(O)C(=O)O (centres undefined),45.6 µg/mL
21,O=S(=O)(Cc1ccc(Cl)cc1)NCc1cccnc1,> 44.5 µg/mL
22,Cc1ccc(C(=O)O/N=C(\N)c2ccccn2)cc1Cl,< 0.2 µg/mL
23,COc1ccc(CNC(=O)CNC(=O)c2ccc(Br)o2)cc1OC,53.1 µg/mL
24,COC(=O)c1ccc(NC(=O)C(=O)c2cccn2C)cc1,3.2 µg/mL

row,Compound,solubility kinetic
1,CN(CC(=O)Nc1ccc(F)cc1)C(=O)C1CCCC1,> 41.7 µg/mL
2,Cc1cccc(Nc2c3c(nc4ccccc24)CCC3)c1.Cl,44.9 µg/mL
3,Nc1nc(Cl)cc(N2CCCC2)n1,> 29.8 µg/mL
4,O=C(Nc1ccc(-n2cccc2)cc1)C1CC1,6.4 µg/mL
5,COCCCN=CC1=C(O)CC(c2ccccc2)CC1=O (centres undefined),> 43.1 µg/mL
6,O=C(CSc1nc2ncccc2[nH]1)c1ccc2c(c1)OCO2,0.7 µg/mL
7,COc1cc(S(=O)(=O)N2CCOCC2)cc(C(=O)NCC(c2cccs2)N2CCOCC2)c1OC (centres undefined),7.4 µg/mL
8,Cc1cc(OCC(=O)Nc2ccncc2)ccc1Cl,40.6 µg/mL
9,O=C(CCn1ccnc1)Nc1cc(Cl)ccc1O,> 39.9 µg/mL
10,CCc1ccc(OCCNC(=O)c2ccco2)cc1,> 38.9 µg/mL
11,Cc1ccc(CNC(=O)c2ccc(N(C)C)cc2)cc1,3.2 µg/mL
12,O=C(NC1CCCN(CCc2ccccc2)C1)c1c[nH]c2ccccc12 (centres undefined),49.3 µg/mL
13,Cn1nc(C(C)(C)C)c([N+](=O)[O-])c1C(=O)N1CCOCC1,> 44.4 µg/mL
14,O=C(NCCc1csc(-c2cccnc2)n1)c1c(F)cccc1F,48.9 µg/mL
15,Cc1ccc(C23CC4CC(CC(C(=O)NCC(=O)O)(C4)C2)C3)cc1,> 49.1 µg/mL
16,CCCCNC(=O)COC(=O)c1ccc(F)cc1Cl,> 43.2 µg/mL
17,O=C(C1CCC1)N1CCN(c2ccnc3cc(Cl)ccc23)CC1,45.4 µg/mL
18,CC12CCC(C(=O)Nc3cc(F)ccc3F)(CC1=O)C2(C)C (centres undefined),32 µg/mL
19,O=C(O)c1cc(O)ccc1NC(=O)C(c1ccccc1)c1ccccc1,> 52.1 µg/mL
20,O=C1CN(c2ccccc2)C(=O)N1,> 26.4 µg/mL
21,CSc1ccccc1C(=O)C1CCCN(C(=O)NC(C)C)C1 (centres undefined),42.1 µg/mL
22,O=C(COC(=O)c1ccc(Cl)nc1)NC1CCCc2ccccc21 (centres undefined),36.1 µg/mL
23,Cc1noc(C)c1NC(=O)N1CCN(Cc2ccccc2)CC1,> 47.2 µg/mL
24,CCOC(=O)C1=C(C)NC2=C(C(=O)OC2)C1c1ccccc1 (centres undefined),> 44.9 µg/mL

row,Compound,solubility kinetic
1,C=CCN(CC=C)C(=S)Nc1ccc2nsnc2c1,> 43.6 µg/mL
2,COc1ccc(CCC(=O)Nc2ccc3c(c2)OCO3)cc1,7.3 µg/mL
3,O=C(CC(=O)Nc1ccc(F)cc1)Nc1ccc(F)cc1,3.1 µg/mL
4,Cc1cc(CNC(=O)COC(=O)C2CC3CCCC(C2)C3=O)cc(C)c1O (centres undefined),> 56 µg/mL
5,O=C(COC(=O)CNS(=O)(=O)c1cc(C(F)(F)F)ccc1Cl)NC1CC1,> 62.2 µg/mL
6,CCCN1CCC(NC2CCC(O)CC2)CC1 (centres undefined),27.1 µg/mL
7,CN(CC(=O)NC(=O)Nc1ccccc1F)Cc1ccccc1,4.7 µg/mL
8,O=C(Nc1cccc(F)c1)c1ccc(Cn2cc([N+](=O)[O-])cn2)o1,> 49.5 µg/mL
9,CC(=O)CC(C)(C)Nc1nc2cc([N+](=O)[O-])ccc2o1,1.1 µg/mL
10,CCOC(=O)CSc1nc(C)cc2c1C(=O)OC2,37.5 µg/mL
11,O=C1CCCC(=O)N1c1ccc(F)cc1,> 31.1 µg/mL
12,N/C(=N\O)c1ccccc1N1CCCCC1,29.9 µg/mL
13,Nc1nnc(SCc2c(F)cccc2Cl)s1,> 41.4 µg/mL
14,Nc1nc(-c2ccc(S(=O)(=O)N3CCCCC3)cc2)cs1,6.6 µg/mL
15,COc1cc([N+](=O)[O-])ccc1NC(=O)N1CCCCCC1,32.1 µg/mL
16,COc1ccc(Cl)cc1NC(=O)CN(C)C(=O)/C=C/c1ccco1,> 52.3 µg/mL
17,Cc1cccc(OCC(O)CN2CCc3ccccc3C2)c1.Cl (centres undefined),> 50.1 µg/mL
18,Cc1c(C)n(CCc2c[nH]c3ccccc23)ccc1=O,38.5 µg/mL
19,COC(=O)c1sccc1NC(=O)c1cccc(Cl)c1,< 0.6 µg/mL
20,Cc1ccnc(NC(=O)COC(=O)c2ccc(F)cc2F)n1,> 46.1 µg/mL
21,COCCSc1ncnc2c1oc1nc3c(cc12)COC(C)(C)C3,43 µg/mL
22,Cc1ccc(S(=O)(=O)N2CCN(c3ccccc3)CC2)s1,2.3 µg/mL
23,CCC(=O)Nc1ccc2c(c1)ncn2-c1ccc(C)cc1,> 41.9 µg/mL
24,CCOC(=O)N1CCN(S(=O)(=O)c2ccc(C)cc2)CC1,28.1 µg/mL

row,Compound,solubility kinetic
1,O=C1CCCC2=C1C(c1ccc(O)c(O)c1)Nc1ccc3ccccc3c12 (centres undefined),47.3 µg/mL
2,CC(Sc1ccccc1F)C(=O)Nc1ccc2c(c1)OCCO2 (centres undefined),> 50 µg/mL
3,Cc1ccc(C)c(NC(=O)c2nc(Cl)ccc2Cl)c1,3.2 µg/mL
4,Cc1[nH]c2ccccc2c1C(=O)COC(=O)c1ccc[n+]([O-])c1,39.7 µg/mL
5,COC(=O)c1[nH]c2c(c1C(=O)OC)CCc1ccccc1-2,19.4 µg/mL
6,CCOc1ncccc1C(=O)Nc1cc(C(F)(F)F)ccc1N1CCOCC1,4.1 µg/mL
7,O=C(CCCc1ccccc1)NCc1ccc2c(c1)OCO2,> 44.6 µg/mL
8,COc1ccc(NC(=O)Cn2c(C)csc2=O)c(OC)c1,> 46.3 µg/mL
9,CCc1ccc(NC(=O)COC(=O)/C=C/c2ccco2)cc1,4.8 µg/mL
10,CCC(CO)n1c(=S)[nH]c2cc(OC)c(OC)cc2c1=O (centres undefined),> 46.6 µg/mL
11,FC(F)Oc1ccc(NC(=S)NCc2ccco2)cc1Cl,> 49.9 µg/mL
12,Cc1ccc(S(=O)(=O)N(C)CC(=O)OCC(=O)NCCc2ccc(S(N)(=O)=O)cc2)cc1,> 72.5 µg/mL
13,O=S(=O)(Nc1cccc(S(=O)(=O)N2CCCCCC2)c1)c1ccc(F)cc1F,> 64.6 µg/mL
14,Cc1ccc(S(=O)(=O)N2CCN(C(=O)C3CCCO3)CC2)cc1 (centres undefined),49.8 µg/mL
15,O=C(Nc1ccccc1C(=O)O)C1=NN=CC1,> 34.7 µg/mL
16,CC(=O)NCCN1C(=O)S/C(=C\c2cccs2)C1=O,> 44.5 µg/mL
17,COc1ccc(/C=N/NC(=O)CNC(=O)c2ccncc2)cc1,> 46.8 µg/mL
18,O=C(NC1=NCCS1)c1ccccc1F,33.4 µg/mL
19,O=C(COC(=O)c1cc(Br)ccc1O)NC12CC3CC(CC(C3)C1)C2,3.1 µg/mL
20,O=C1C2CCCCN2C(=O)N1CCCCN1CCN(c2ccc(F)cc2)CC1 (centres undefined),43.5 µg/mL
21,COc1ccc(S(=O)(=O)N2CCCCC2)cc1NS(=O)(=O)c1ccccc1,4.3 µg/mL
22,COC(=O)CNC(=O)c1cccc(Cl)c1,> 34.1 µg/mL
23,CCOc1ccccc1NC(=O)COc1ccc2ccc(=O)oc2c1,0.9 µg/mL
